A short description of experiment [1]: Trypanosoma cruzi growth suppression in host cells – NIH3T3 host cells, beta-gal luminescence, confirmation (AID 2044).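 Further: intracellular parasites grown in NIH/3T3 mouse fibroblasts as host cells; luminescent beta-galactosidase reporter signal from transgenic T. cruzi replicating inside host cells; inhibitors lower the luminescence signal.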 The format is functional, cell-based.
A short description of experiment [2]: NIH3T3 cell viability loss – ATP luminescence, mouse fibroblasts, counter-screen, dose response (AID 2010).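 Further: cells exposed to compound for about 90 hours before reading.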 The format is functional, cell-based. (In general: Counterscreens check selectivity or assay interference.)
For another experiment, the target named is Trypsin (Sus scrofa, UniProt P00761). In words: trypsin protease activity blockade – biochemical, quenched peptide fluorescence, cherry-pick, selectivity assay for Rce1 protease inhibitor project, dose response (AID 488789).
Experiment [3] deals with T1, Ubiquitin-conjugating enzyme E2 N (Homo sapiens, UniProt P61088).
T1 sequence (P61088 whole entry): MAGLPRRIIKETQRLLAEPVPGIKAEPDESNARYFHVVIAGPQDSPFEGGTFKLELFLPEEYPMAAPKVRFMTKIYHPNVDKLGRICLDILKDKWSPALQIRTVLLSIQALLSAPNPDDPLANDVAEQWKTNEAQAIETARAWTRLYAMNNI
The format is functional.

The target of a further experiment is T2, CAAX prenyl protease 2 (Homo sapiens, UniProt Q9Y256).
T2 sequence (Q9Y256 whole entry): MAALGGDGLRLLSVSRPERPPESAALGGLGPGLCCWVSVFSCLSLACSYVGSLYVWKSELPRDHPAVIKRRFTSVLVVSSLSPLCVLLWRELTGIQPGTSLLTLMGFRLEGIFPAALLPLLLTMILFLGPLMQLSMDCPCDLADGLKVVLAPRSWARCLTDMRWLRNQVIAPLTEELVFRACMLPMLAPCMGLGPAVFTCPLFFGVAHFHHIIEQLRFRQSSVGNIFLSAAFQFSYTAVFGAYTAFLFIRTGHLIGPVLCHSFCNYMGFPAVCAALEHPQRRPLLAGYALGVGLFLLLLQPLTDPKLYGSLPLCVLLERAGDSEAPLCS
In words: inhibition of Ras-converting CAAX protease Rce1 – biochemical, yeast membranes, quenched-peptide fluorescence, cherry-pick, dose response (AID 588849).

Experiment [4] deals with DNA repair protein RAD52 homolog (Homo sapiens, UniProt P43351). The format is functional, biochemical.
Experiment [5] has as its target DNA repair and recombination protein RAD54-like (Homo sapiens, UniProt Q92698). The experiment is described as follows: RAD54 Holliday junction migration blockers – biochemical, fluorescence, cherry-picked samples, dose series, confirmation (AID 651657). The format is functional.
Experiment [6] in a line: viability loss in HepG2 hepatoma cells – cell-based, ATP luminescence, cherry-pick, activator set 2, cytotoxicity control, dose response (AID 1053143). The format is functional.
The target of experiment [7] is T3, High affinity choline transporter 1 (Homo sapiens, UniProt Q9GZV3).
T3 sequence (Q9GZV3 whole entry): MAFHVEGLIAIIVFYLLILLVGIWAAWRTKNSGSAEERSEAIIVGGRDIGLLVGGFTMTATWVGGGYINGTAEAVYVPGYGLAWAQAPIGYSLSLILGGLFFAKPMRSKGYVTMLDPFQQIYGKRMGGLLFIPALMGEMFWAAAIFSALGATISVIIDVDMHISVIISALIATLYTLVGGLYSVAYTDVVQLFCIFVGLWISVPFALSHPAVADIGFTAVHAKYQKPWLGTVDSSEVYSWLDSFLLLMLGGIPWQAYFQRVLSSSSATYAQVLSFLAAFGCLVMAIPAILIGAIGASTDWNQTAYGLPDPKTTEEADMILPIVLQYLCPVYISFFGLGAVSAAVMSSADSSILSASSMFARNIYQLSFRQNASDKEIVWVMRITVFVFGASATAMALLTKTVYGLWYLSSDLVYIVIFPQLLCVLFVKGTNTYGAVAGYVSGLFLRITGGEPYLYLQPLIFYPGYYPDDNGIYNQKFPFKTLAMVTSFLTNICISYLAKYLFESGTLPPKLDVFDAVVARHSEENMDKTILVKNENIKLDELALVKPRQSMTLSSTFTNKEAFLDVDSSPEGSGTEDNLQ
In words: human choline transporter blockers, potency – cell-based, 5-point CRC, membrane potential dye, dose response (AID 504840). In kind it is functional.

Experiment [8] in a line: HGIII-sPLA2 enzyme inhibition potency – biochemical, QFRET, IC50, dose response (AID 743457).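 Further: green fluorescence rise as the enzyme cleaves BODIPY PC-A2 in liposomes.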
The nature of experiment [9]: T. cruzi growth inhibition in host cells, dose response, cell-based, plate reader, dry powder, set 2 (AID 652275). In kind it is functional.
In experiment [10] the target is Protein disulfide-isomerase (Homo sapiens, UniProt P07237). The experiment is described as follows: inhibition of PDI-mediated insulin reduction – biochemical, turbidity, dry powder samples, set 2, confirmation (AID 652146).
The target of a further experiment is Protein Wnt-3a (Mus musculus, UniProt P27467). The experiment is described as follows: SAR analysis of small molecule antagonists of Gli-SUFU in a Wnt3a luminescent reporter assay. The format is functional. Background: A reporter such as luciferase makes a cellular process visible.
The target of experiment [11] is FAD-linked sulfhydryl oxidase ALR (Homo sapiens, UniProt P55789). The experiment is described as follows: ALR-catalysed DTT oxidation blockers – biochemical, H2O2 detection, luminescence, cherry-pick, dose response (AID 493248).
Experiment [12] has as its target T4, Oxysterols receptor LXR-beta (Homo sapiens, UniProt P55055).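 Further: agonist activity at LXR measured by a cell-based luminescence readout across a dose range, run as a counterscreen for daf-12 agonists; HEK293 cells with Gal4-LXR fusion and GAL4-driven luciferase reporter; potency for activation of Gal4-LXR reporter so compounds are agonists.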
T4 sequence (P55055 whole entry): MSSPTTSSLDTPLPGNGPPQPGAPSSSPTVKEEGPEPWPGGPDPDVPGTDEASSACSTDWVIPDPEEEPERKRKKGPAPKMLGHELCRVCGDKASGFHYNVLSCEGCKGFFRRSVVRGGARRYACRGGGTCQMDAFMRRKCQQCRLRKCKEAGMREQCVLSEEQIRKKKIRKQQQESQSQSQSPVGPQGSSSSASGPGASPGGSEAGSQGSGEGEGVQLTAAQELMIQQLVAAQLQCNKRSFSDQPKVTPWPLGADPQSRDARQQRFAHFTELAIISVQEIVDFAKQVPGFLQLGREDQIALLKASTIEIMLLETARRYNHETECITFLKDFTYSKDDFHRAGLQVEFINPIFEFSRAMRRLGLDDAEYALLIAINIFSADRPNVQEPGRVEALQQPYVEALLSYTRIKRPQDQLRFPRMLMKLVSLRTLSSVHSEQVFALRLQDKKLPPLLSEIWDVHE
In kind it is functional, cell-based.

The source made the active and inactive calls. Some results are limits rather than exact numbers.

What is called EC50 is the concentration at which the effect is half-maximal. What is called AC50 is the midpoint of the concentration-response curve, whichever way the signal moves. The term IC50 denotes the midpoint of a concentration-inhibition curve.

Sequence of DNA repair protein RAD52 homolog (P43351 whole entry): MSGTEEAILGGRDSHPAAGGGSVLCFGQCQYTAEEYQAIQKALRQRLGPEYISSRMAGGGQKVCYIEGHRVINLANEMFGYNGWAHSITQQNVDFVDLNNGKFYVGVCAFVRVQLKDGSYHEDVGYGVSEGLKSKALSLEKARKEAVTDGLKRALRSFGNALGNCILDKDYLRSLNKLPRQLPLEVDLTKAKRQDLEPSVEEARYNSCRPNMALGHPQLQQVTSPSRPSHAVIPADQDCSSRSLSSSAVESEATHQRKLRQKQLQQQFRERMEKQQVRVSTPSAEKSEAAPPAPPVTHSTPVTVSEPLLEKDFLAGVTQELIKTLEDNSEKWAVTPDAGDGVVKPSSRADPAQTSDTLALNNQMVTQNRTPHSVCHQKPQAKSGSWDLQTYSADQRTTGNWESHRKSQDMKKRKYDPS
Sequence of Protein Wnt-3a (P27467 whole entry): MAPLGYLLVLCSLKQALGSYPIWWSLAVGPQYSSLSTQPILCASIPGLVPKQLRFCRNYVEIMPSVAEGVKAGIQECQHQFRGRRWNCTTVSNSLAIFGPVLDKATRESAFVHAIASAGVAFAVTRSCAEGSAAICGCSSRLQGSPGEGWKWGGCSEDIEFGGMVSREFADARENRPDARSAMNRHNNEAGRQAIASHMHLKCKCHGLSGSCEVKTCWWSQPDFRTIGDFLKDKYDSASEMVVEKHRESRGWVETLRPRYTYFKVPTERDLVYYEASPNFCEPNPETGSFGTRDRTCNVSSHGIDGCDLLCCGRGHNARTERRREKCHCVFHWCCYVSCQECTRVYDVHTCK
Sequence of Protein disulfide-isomerase (P07237 whole entry): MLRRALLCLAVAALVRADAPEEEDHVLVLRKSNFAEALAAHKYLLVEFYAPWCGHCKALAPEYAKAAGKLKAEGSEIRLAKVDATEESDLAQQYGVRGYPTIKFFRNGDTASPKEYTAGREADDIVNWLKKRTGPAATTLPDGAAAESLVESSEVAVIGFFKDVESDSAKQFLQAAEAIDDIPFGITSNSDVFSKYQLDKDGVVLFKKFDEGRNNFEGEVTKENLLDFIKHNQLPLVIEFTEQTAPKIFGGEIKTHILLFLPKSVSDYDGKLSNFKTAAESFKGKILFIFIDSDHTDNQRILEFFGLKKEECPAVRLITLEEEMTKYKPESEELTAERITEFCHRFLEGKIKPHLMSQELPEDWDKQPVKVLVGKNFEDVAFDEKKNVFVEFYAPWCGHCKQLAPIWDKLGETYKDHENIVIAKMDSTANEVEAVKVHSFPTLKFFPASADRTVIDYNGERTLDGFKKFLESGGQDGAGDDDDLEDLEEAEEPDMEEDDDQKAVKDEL
Sequence of FAD-linked sulfhydryl oxidase ALR (P55789 whole entry, the tested form may be a part): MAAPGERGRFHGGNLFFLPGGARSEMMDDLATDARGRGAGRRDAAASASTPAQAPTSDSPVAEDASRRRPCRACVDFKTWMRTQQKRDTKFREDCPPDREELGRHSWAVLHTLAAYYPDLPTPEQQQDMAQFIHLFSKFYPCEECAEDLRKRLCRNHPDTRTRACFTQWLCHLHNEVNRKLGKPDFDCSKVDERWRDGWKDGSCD
Sequence of Trypsin (P00761 whole entry): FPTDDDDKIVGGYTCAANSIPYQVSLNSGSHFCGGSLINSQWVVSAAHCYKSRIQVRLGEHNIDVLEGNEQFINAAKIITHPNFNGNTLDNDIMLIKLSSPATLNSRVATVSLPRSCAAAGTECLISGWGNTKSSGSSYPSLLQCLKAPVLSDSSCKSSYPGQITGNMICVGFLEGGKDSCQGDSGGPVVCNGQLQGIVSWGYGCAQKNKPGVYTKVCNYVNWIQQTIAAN
Sequence of DNA repair and recombination protein RAD54-like (Q92698 whole entry): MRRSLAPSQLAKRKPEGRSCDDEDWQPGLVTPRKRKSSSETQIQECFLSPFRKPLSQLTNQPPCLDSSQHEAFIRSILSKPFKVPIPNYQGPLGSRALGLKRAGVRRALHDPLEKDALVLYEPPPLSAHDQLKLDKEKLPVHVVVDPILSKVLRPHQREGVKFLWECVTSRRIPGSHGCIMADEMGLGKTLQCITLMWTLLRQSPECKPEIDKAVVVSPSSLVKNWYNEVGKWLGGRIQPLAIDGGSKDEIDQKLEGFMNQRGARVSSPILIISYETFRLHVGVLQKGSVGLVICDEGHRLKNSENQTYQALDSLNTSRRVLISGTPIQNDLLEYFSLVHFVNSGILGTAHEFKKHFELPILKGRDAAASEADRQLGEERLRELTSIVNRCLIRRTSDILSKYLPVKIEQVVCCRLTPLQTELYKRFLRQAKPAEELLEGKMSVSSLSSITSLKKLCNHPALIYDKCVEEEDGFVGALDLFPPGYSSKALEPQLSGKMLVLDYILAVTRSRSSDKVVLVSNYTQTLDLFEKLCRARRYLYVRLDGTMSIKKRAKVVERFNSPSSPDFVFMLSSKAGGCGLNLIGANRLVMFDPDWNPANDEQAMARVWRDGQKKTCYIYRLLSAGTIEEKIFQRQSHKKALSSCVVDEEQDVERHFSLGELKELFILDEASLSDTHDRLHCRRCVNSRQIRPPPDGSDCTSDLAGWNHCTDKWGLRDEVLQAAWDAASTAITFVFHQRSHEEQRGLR

On to `CCOC(=O)c1c(-c2ccccc2)oc2ccc(OCC(O)CNCCN(C)C)cc12` (stereo not drawn), for which the EC50 in experiment [1] was 1.79 µM (active); in [2], 5.42 µM (active). Also, the AC50 on Trypsin was 10.3 µM (active); on CAAX prenyl protease 2, 11.8 µM (active); in experiment [4], 5 µM (active). In addition, the IC50 in [3] is > 20 µM (inactive).

`CN(C)CCCN(C(=O)c1ccc([N+](=O)[O-])o1)c1nc2cc3c(cc2s1)OCO3`: the AC50 is 24.6 µM (active) in experiment [5] and 10.5 µM (active) in experiment [4].

As for `Cc1ncoc1C(=O)Nc1ncc([N+](=O)[O-])s1`, the AC50 in experiment [6] is 26 µM (active).

For the molecule `O=C(NN=C(S)Nc1ccc(F)cc1)C1CC1c1ccc(Cl)cc1` (stereo not drawn), the values for the half-inhibitory concentration (IC50) in [7] and in experiment [8] were 13.2 µM (active) and > 122 µM (inactive), respectively.

Take `O=C(c1ccc(F)cc1)N1CCCCN2[C@@H](CO)[C@H](c3ccc(-c4ccccc4)cc3)[C@@H]2C1`: the AC50 in [9] was 2.56 µM (active).

As to `CC(C)N1CC2(CN(Cc3ccc(-c4cccnc4)cc3)C2)Oc2c(NC(=O)c3ccncc3)cccc2C1=O`, in experiment [9], the AC50 was 0.179 µM (active).

For the molecule `O=C(NC1CCCC1)C1(CCOc2ccccc2)CCN(Cc2ccc(O)c(Cl)c2)CC1`, the AC50 in experiment [10] was 5 µM (active).

In the case of `CCN(CC)c1cc(NC(=O)c2ccccc2)ncn1`, the IC50 at Protein Wnt-3a was > 21.8 µM (inactive).

For `CCN(CC)c1cc(NC(=O)c2cc(OC)cc(OC)c2)ncn1`, at Protein Wnt-3a, the IC50 was > 21.8 µM (inactive).

For the molecule `Cc1nn(-c2ccccc2)c(Cl)c1/C=N/Nc1ccc(Cl)c(C(=O)O)c1`, the AC50 in experiment [11] is 907 nM (active). Besides, the EC50 in experiment [12] was > 67.5 µM (inactive).

Values taken from ChEMBL document CHEMBL1201862, “PubChem BioAssay data set” (2004).
